Source: publication PMC7270110, “Labeled oxytocin administered via the intranasal route reaches the brain in rhesus macaques” (Nature Communications, 2020)

Legend:
[1] = Plasma concentration of endogenous d0OT by LC-MS/MS; type: in vivo, rhesus macaques (Macaca mulatta); settings: LLOQ 10 pg/ml, MDL 4 pg/ml
Protocol: (§1) The six monkeys were dosed once a week, for 4 consecutive weeks, with each DOSE–ROUTE condition of d5OT (40 IU IN, 40 IU IV, 80 IU IN, or 80 IU IV). Each DOSE–ROUTE condition was assigned using a Latin square randomization (Table 4). Sessions were separated by at least 6 days. During each session, CSF (750 µl) and blood (5 ml) samples were drawn immediately prior to (T = 0) and following (T = 60 and 120 min) each administration of d5OT.
Chemicals: An unlabeled standard for d0OT and deuterated standard for d5OT were purchased from Sigma-Aldrich (St. Louis, MO); d10OT was purchased for use as an internal standard through a custom order from Cayman Chemical (Ann Arbor, MI). All other reagents were commercially available, and we purchased LC or MS grade chemicals when available. Plasma and CSF sample preparation for LC–MS/MS analysis. […]
(§2) Solid-phase extraction (SPE) columns (Strata-X-Drug B, 60 mg/6 ml, Phenomenex, Torrance, CA) were conditioned prior to use by adding 2 ml of methanol, followed by 2 ml of water, and 2 ml of 0.2 M ammonium acetate (pH 3.0) in water; each was allowed to flow through by gravity before the next was added. […] After a 15 min incubation at 4 °C, plates were filtered into microtiter plates (Shimadzu, Kyoto, Japan) using a positive pressure manifold (8 min at 5 psi, followed by 15 s at 15 psi; Biotage, Uppsala, Sweden), and analyzed. […]

[2] = humans; 24 IU OT (not labelled) intranasally; 75 minutes post-administration; radioimmunoassay; ref Striepens et al., Sci Rep 2013; cited from earlier work
Protocol: page 8: 4. It is surprising that no CSF d5 OT was detected at 60 or 120 minutes in CSF after IN administration. […] In our previous study (Lee et al., Mol Psychiatry 2018), after IN administration, CSF d5OT concentration at 60 minutes was quantified in 4 monkeys as follows: 11.28, 15.99, 67.65 and 221.62 pg/ml. In this previous study, the limit of quantification (LOQ) for d5OT was 10 pg/ml. The LOQ of d5OT in the present study was 100 pg/ml and the method dete ...

[3] = CSF concentration of d5OT by LC-MS/MS after IN or IV d5OT; type: in vivo, rhesus macaques (Macaca mulatta)
Protocol: as §1
Monkeys were divided into three groups, each with two monkeys; each group received the following in a terminal study at the 5th week: Group 1 (Monkeys ID# 1 and ID# 5) received 40 IU of d5OT IN, Group 2 received 80 IU of d5OT IN (Monkeys ID# 2 and ID# 4) and Group 3 received 80 IU of d5OT IV (Monkeys ID# 3 and ID# 6). Animals were perfused on average, 140 ± 7 (mean ± SD) min after d5OT administration (range = 135–149 min) (Table 4). Plasma and CSF were drawn just before administration of d5OT, at the midpoint between d5OT administration and perfusion (~60 min post-d5OT administration), and just before perfusion.
Chemicals: An unlabeled standard for d0OT and deuterated standard for d5OT were purchased from Sigma-Aldrich (St. Louis, MO); d10OT was purchased for use as an internal standard through a custom order from Cayman Chemical (Ann Arbor, MI). All other reagents were commercially available, and we purchased LC or MS grade chemicals when available. Plasma and CSF sample preparation for LC–MS/MS analysis. CSF and plasma samples were collected as described above. Using 15 ml polystyrene tubes, 1.0 ml of each standard, quality control (QC), or plasma sample was combined with 30 µl of internal standard mixture (34 ng/ml d10OT in 50:50 acetonitrile (ACN):water, v–v) and incubated for 20 min on ice. Volumes used for CSF samples ranged from 0.4 to 1.0 ml, depending on sample availability. CSF samples <1.0 ml were brought to a final volume of 1.0 ml using charcoal-stripped serum, prior to addition of internal standard. To each tube, 2 ml of ice-cold ACN was added, vortexed thoroughly, and centrifuged at 2500 × g for 10 min at 4 °C. The supernatants were transferred to new 13 mm × 100 mm polypropylene tubes and evaporated in a 37 °C water bath, under forced air, to a volume of <1 ml. We then added 5.5 ml of 0.2 M ammonium acetate (pH 3.0) in water, capped the tubes and mixed by inversion, before centrifugation at 2500 × g for 10 min at 4 °C.
as §2, with “added. The supernatants from the previous step were then added to SPE columns (one supernatant per column) by pouring. Columns were washed with 2 ml ammonium acetate (pH 3.0) in water, followed by 2 ml water and 2 ml ACN, and dried for 5 min in a vacuum manifold (5 in Hg; Millipore, Burlington, MA). OT was eluted with 2 × 1 ml 0.2% ammonium hydroxide in methanol into 12 mm × 75 mm polypropylene tubes and evaporated to dryness under forced air in a 37 °C water bath.” for “added.”

| d0OT in plasma [1] | d5OT in CSF ([3]; 120 min after IV administration (40 and 80 IU), LC-MS/MS, MDL 38 pg/ml) | d5OT in CSF ([3]; after IN administration of either dose (40 or 80 IU), any timepoint, LC-MS/MS, MDL 38 pg/ml) | d5OT in CSF ([3]; timepoint 60 min after 40 IU IV, N = 6, LC-MS/MS, LOQ 100 pg/ml, MDL 38 pg/ml) | d5OT in CSF ([3]; timepoint 60 min after 80 IU IV, N = 6, LC-MS/MS, LOQ 100 pg/ml, MDL 38 pg/ml) | Compound | CSF OT concentration [2] | d5OT in CSF ([3]; just prior to necropsy, after 80 IU IV, single monkey, LOQ 100 pg/ml) |
| --- | --- | --- | --- | --- | --- | --- | --- |
| not detected | – | – | – | – | CC[C@H](C)[C@@H]1NC(=O)[C@H](Cc2ccc(O)cc2)NC(=O)[C@@H](N)CSSC[C@@H](C(=O)N2CCC[C@H]2C(=O)N[C@@H](CC(C)C)C(=O)NCC(N)=O)NC(=O)[C@H](CC(N)=O)NC(=O)[C@H](CCC(N)=O)NC1=O [OT, oxytocin] | approximately 30 pg/ml | – |
| – | no d5OT detected | no d5OT detected | detected | detected | CC[C@H](C)[C@@H]1NC(=O)[C@H](Cc2ccc(O)cc2)NC(=O)[C@@H](N)CSSC[C@@H](C(=O)N2CCC[C@H]2C(=O)N[C@@H](CC(C)C)C(=O)NCC(N)=O)NC(=O)[C@H](CC(N)=O)NC(=O)[C@H](CCC(N)=O)NC1=O [d5OT] | – | below the limit of quantification |
